{"source": "patent US11850266B2", "about": "“Cardiomyocytes and compositions and methods for producing the same” (President and Fellows of Harvard College, priority 2019, dated 2023)", "format_in_all_cases": "cell-based, human", "key": {"[1]": {"system": "mTORC1 (S6K) and mTORC2 (Akt)", "assay": "Western analysis of phosphorylation downstream of mTORC1 and mTORC2 in iPSC-derived cardiomyocytes", "procedure": "Beating cardiomyocytes were treated with Torin1 (200 nM, unless otherwise noted) or vehicle (0.02% dimethylsulfoxide (DMSO)) beginning at ˜2 days after onset of beating for 7 days (media changed with fresh Torin1 or DMSO every 2-3 days), unless otherwise noted. After Torin1 treatment, media was switched back to RPMI/B27/insulin and maintained with media change every 2-3 days until endpoint assay.\nCells were lysed with lysis buffer (1% Triton X, 0.35% Na-deoxycholate, 1 mM EDTA, 1% protease inhibitor cocktail (Sigma), 1% phosphatase inhibitor cocktail 2 (Sigma), 1% phosphatase inhibitor cocktail 3 (Sigma), 1 mM phenylmethylsulfonyl fluoride (PMSF)) and total protein was measured with the Pierce BCA Protein Assay Kit. Samples with equal total protein quantities (prepared in Laemmli Sample Buffer (Bio-Rad)) were loaded into a Mini-Protean TGX Precast Gel (Bio-Rad) and electrophoresed for 1 hour at 100 V before transfer to a PVDF membrane using the Trans-Blot Turbo Transfer System (Bio-Rad). The Precision Plus Protein Dual Color Standards molecular weight ladder was used to estimate molecular weight of detected bands (Bio-Rad). Membranes were blocked with 5% milk or bovine serum albumin then incubated with the primary antibody (Table 2) overnight at 4 degrees C. followed by incubation with the horseradish peroxidase-conjugated secondary antibody (Table 2) for 1 hour at room temperature. The Amersham ECL Western Blotting Detection kit was used to detect the protein signal by chemiluminescence, and band densities were quantified using ImageJ software (NIH)."}, "[2]": {"system": "iPSC-derived cardiomyocytes", "assay": "Mitochondrial DNA to nuclear DNA ratio, MitoTracker and MitoProbe JC-1 assays", "description": "The mitochondrial DNA to nuclear DNA ratio was quantified with qPCR. DNA was extracted from cardiomyocytes using the PureLink genomic DNA mini kit (Invitrogen). Primers for DNA to mitochondrial gene NADH dehydrogenase 1 (ND1) and nuclear gene lipoprotein lipase gene (LPL) were used (10).\nLive iPSC-derived cardiomyocytes were stained using MitoTracker Green FM (Invitrogen) or the MitoProbe JC-1 assay kit (Invitrogen) according to the manufacturer's instructions. Cells were evaluated by flow cytometry and mean fluorescence intensity (MFI) of all live cells was quantified. For JC-1, the ratio of red to green MFI for vehicle versus Torin1-treated cells was quantified and normalized to control."}, "[3]": {"system": "iPSC-derived cardiomyocytes", "assay": "Spontaneous beating rate of cardiomyocytes", "description": "The BJRiPS cell line was used to generate preliminary data. BJRiPS cells were differentiated into cardiomyocytes according to previously published protocols (6). After the onset of beating (around day 10), cardiomyocytes were treated with vehicle (DMSO) or different concentrations of rapamycin, Torin1, or Torin2 for different time periods. Beating rate was counted manually. Some cells were harvested after 5-7 days of treatment for flow cytometry analysis. Other cells were harvested after 7 days of treatment for qPCR."}, "[4]": {"system": "iPSC-derived cardiomyocytes", "assay": "NanoString PanCancer Pathways Panel gene expression", "details": "Torin1 200 nM 1 week, Gibco iPS-CMs, FIG. 7G", "description": "Gene expression analysis was performed using NanoString technology which employs an optical counting method of fluorescently barcoded RNA according to the manufacturer's instructions. The nCounter PanCancer Pathways Panel was selected to provide a multiplex analysis of 770 genes from several growth and cell cycle-related pathways, including cell cycle, apoptosis, Wnt, transcriptional regulation, PI3K, and TGF-β. This panel was selected to provide a multiplex analysis of pathways associated with cell cycle regulation, metabolism, quiescence and senescence. Cardiomyocytes were differentiated in a 12-well plate then cardiomyocytes were treated with Torin1 (200 nM) or vehicle (DMSO) starting ˜2 days after onset of beating for 1 week (days 9-16 for this batch). After completion of Torin1 treatment, cells were switched back to maintenance media (RPMI+B27+insulin). Beginning on day 18 of differentiation, 10% fetal bovine serum (FBS) was added to half of the wells per treatment group and FBS treatment was continued for 4 days (until day 22 of differentiation). […] Data were analyzed using nSolver 4.0 software with the Advanced Analysis Module 2.0 with normalization to internal housekeeping genes including in the panel to perform unsupervised hierarchical clustering, differential expression analyses, and pathway scoring using the R statistical package."}, "[5]": {"system": "iPSC-derived cardiomyocytes", "assay": "Voltage (FluoVolt) analysis with Vala Kinetic Image Cytometer", "description": "Following completion of Torin1 treatment, cardiomyocytes were dissociated as described above then replated at a density of 20,000-30,000 cells per well in a Geltrex-coated Greiner Cellstar black 96 well plate. FluoVolt dye (1:1000 from stock in the FluoVolt Membrane Potential Kit, Thermo) and Hoechst 33258 stain (20 μg/ml) in RPMI1640 (no phenol red) (supplemented with OxyFluor (Oxyrase, 1:100 dilution), 10 mM sodium lactate) were added to each well 15 minutes prior to assay. Cells were electrically stimulated with 15 V at a frequency of 0.5 pulses/sec and a pulse width of 5 msec for 5 pulses using the IC200 Kinetic Image Cytometer (Vala). Images were acquired at 20× and at a frame rate of 70 frames per second. Voltage analysis was performed using the CyteSeer image analysis software, which automatically recognizes Hoechst-stained nuclei, segments, and identifies each cell to quantify voltage data for each cell captured in the field of view (34). Cells were identified by Hoechst-stained nuclei, segmented into individual cells and automatically numbered by CyteSeer software (FIG. 4C). Within each cell, fluorescence intensity was recorded from within a circular region within each numbered, nucleated cell. […] Data from approximately 300-500 individual cells were included for analysis for each condition. Baseline fluorescence was used to normalize for variability in fluorescence intensity between individual cells. The peak rise time, CTD25 (25% duration of the calcium transient, or duration at 25% decline from maximum amplitude), CTD75 (75% duration of the calcium transient, or duration at 75% decline from maximum amplitude), T75-25 (time for voltage to decay from 75% to 25% of maximum), and downstroke velocity were quantified using the CyteSeer image analysis software."}, "[6]": {"details": "Torin1 200 nM 7 days, BJRiPS-CMs"}}, "data": [{"smiles": "CCC(=O)N1CCN(c2ccc(-n3c(=O)ccc4cnc5ccc(-c6cnc7ccccc7c6)cc5c43)cc2C(F)(F)F)CC1", "note": "[Torin1]", "values": [{"measurement": "phosphorylation of AMP kinase (AMPK)", "setting": "[1]; Torin1 200 nM, 0-48 h, BJRiPS-CMs, FIG. 17B", "result": "increased phosphorylation of AMP kinase (AMPK)"}, {"measurement": "phosphorylation of S6K and Akt", "setting": "[1]; Torin1 200 nM, single treatment, 0-48 h, BJRiPS-CMs", "result": "acutely decreased phosphorylation of both S6K and Akt"}, {"measurement": "phosphorylation of ribosomal protein S6", "setting": "[1]; Torin1 10, 50, 200 nM at days 25-29 after lactate enrichment, FIG. 28", "result": "decreased phosphorylation of S6"}, {"measurement": "MFI of MitoTracker by flow cytometry", "setting": "[2]; [6]", "result": "decreased MFI"}, {"measurement": "mitochondrial to nuclear DNA ratio", "setting": "[2]; [6]", "result": "decreased"}, {"measurement": "mitochondrial membrane polarization (MitoProbe JC-1 red:green ratio)", "setting": "[2]; Torin1 1 week, FIG. 3E", "result": "significant increase in mitochondrial membrane polarization"}, {"measurement": "spontaneous rate of contraction", "setting": "[3]; Example 1, FIG. 4C", "result": "decrease"}, {"measurement": "beating rate of cardiomyocytes", "setting": "[3]; Torin1 10, 50, 200 nM, Torin2 200 nM, from day 11 for 4-5 days, FIG. 29", "result": "decreased the beating rate"}, {"measurement": "beating rates at 1 week", "setting": "[3]; dose-dependent, BJRiPS-CMs, FIG. 29", "result": "significantly decreased beating rates"}, {"measurement": "expression of interleukin-8 (IL8) and SPP1 (osteopontin)", "setting": "[4]", "result": "significant decrease in expression"}, {"measurement": "action potential profile", "setting": "[5]; FluoVolt, FIG. 4E", "result": "longer plateau phase and a sharper upstroke and downstroke"}, {"measurement": "action potential peak rise time", "setting": "[5]; UCSD-CMs, FIG. 4F", "result": "significant decrease"}, {"measurement": "downstroke velocity", "setting": "[5]; UCSD-CMs, FIG. 4G", "result": "significant increase"}, {"measurement": "CTD25", "setting": "[5]; UCSD-CMs, FIG. 4H", "result": "no changes"}, {"measurement": "CTD75", "setting": "[5]; UCSD-CMs, FIG. 4I", "result": "significant decrease"}, {"measurement": "T75-25 time", "setting": "[5]; UCSD-CMs, FIG. 4J", "result": "significant decrease"}]}]}
